Test results taken from patent US11572590B2, “Methods for evaluating tumor cell spheroids using 3D microfluidic cell culture device” (Dana-Farber Cancer Institute, Inc., priority 2017, dated 2023).
Like-named read-outs stand apart in the source and are kept apart here.

Tests used:
Assay in all cases: SelectScreen Kinase Profiling, single point inhibition and IC50 for off-target kinases
Type in all cases: biochemical
[1] = target: off-target kinases (Homo sapiens, UniProt P06239); conditions: LCK, ZLYTE, ATP Km app
Chain of off-target kinases (Homo sapiens, UniProt P06239) (P06239 whole entry): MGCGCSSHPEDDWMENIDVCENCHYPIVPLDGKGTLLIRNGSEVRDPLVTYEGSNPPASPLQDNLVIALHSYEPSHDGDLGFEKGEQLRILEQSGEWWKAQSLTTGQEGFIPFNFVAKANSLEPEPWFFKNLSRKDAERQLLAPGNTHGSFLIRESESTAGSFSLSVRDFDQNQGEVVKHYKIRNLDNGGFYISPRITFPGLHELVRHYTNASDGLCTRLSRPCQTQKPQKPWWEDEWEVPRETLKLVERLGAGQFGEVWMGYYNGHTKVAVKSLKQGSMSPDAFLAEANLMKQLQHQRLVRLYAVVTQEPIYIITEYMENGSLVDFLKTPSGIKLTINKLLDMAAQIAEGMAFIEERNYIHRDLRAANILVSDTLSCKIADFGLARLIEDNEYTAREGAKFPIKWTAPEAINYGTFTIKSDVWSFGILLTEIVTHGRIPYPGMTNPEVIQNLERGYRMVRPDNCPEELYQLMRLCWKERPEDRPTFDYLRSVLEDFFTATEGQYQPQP

[2] = target: off-target kinases (Homo sapiens, UniProt P08581, M1250T); conditions: MET M1250T, mutant y, ZLYTE, ATP Km app
Chain of off-target kinases (Homo sapiens, UniProt P08581, M1250T) (P08581 25-1390 M1250T): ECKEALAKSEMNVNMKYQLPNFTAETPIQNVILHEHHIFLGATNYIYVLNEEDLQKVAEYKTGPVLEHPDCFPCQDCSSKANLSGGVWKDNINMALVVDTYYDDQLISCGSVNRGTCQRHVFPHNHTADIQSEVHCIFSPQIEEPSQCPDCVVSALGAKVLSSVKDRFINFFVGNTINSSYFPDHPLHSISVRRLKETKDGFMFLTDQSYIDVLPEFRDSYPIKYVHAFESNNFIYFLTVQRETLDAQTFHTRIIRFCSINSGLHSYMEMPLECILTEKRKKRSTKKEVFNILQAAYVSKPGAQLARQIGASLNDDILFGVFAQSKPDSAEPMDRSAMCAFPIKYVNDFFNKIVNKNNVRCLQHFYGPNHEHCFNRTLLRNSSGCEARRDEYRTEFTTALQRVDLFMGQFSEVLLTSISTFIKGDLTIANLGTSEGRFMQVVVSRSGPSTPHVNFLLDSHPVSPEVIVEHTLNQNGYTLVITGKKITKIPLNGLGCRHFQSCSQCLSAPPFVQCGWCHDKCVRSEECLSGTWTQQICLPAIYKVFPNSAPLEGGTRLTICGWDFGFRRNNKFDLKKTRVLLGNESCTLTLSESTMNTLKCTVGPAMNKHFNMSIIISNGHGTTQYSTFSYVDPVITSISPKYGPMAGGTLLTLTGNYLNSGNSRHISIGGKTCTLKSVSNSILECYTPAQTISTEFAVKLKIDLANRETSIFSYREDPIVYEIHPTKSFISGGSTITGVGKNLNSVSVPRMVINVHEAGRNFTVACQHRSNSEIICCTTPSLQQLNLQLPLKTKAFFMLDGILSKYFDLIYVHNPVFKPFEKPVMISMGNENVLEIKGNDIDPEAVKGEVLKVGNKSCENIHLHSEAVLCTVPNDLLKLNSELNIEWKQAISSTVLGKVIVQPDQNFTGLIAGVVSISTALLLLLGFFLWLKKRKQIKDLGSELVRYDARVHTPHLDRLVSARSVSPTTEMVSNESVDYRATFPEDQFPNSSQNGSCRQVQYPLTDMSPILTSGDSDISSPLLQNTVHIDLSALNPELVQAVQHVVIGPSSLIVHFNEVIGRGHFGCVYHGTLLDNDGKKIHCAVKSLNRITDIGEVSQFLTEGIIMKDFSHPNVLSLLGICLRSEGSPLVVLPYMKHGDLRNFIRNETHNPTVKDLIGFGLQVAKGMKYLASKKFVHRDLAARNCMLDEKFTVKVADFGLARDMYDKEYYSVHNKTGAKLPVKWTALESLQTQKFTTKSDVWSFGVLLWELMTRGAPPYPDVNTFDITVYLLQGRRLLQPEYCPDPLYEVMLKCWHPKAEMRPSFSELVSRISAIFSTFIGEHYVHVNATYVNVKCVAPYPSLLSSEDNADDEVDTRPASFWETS

[3] = target: off-target kinases (Homo sapiens, UniProt P22455); conditions: FGFR4, ZLYTE, ATP Km app
Chain of off-target kinases (Homo sapiens, UniProt P22455) (P22455 22-802): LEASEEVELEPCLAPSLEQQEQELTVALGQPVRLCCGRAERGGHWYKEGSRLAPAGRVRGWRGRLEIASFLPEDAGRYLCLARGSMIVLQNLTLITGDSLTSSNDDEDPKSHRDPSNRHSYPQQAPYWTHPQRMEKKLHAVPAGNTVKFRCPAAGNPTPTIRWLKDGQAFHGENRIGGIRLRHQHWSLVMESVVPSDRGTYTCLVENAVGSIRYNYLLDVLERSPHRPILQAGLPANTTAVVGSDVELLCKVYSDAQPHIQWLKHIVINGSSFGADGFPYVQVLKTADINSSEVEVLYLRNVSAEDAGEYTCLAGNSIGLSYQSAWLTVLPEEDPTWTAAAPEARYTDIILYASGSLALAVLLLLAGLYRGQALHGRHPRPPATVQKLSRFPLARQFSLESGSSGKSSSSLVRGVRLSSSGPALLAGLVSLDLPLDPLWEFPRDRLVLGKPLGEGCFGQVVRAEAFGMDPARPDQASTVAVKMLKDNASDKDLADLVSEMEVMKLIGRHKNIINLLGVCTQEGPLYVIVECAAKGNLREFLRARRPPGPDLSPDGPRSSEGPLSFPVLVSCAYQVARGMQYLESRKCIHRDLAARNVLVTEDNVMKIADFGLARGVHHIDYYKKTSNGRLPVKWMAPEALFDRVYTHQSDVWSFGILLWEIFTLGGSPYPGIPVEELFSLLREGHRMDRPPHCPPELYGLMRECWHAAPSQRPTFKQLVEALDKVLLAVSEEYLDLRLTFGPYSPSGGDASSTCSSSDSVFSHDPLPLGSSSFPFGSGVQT

[4] = target: T1, off-target kinases (Homo sapiens, UniProt P35626); conditions: ADRBK2 (GRK3), ZLYTE, ATP Km app
T1 sequence (P35626 1-688): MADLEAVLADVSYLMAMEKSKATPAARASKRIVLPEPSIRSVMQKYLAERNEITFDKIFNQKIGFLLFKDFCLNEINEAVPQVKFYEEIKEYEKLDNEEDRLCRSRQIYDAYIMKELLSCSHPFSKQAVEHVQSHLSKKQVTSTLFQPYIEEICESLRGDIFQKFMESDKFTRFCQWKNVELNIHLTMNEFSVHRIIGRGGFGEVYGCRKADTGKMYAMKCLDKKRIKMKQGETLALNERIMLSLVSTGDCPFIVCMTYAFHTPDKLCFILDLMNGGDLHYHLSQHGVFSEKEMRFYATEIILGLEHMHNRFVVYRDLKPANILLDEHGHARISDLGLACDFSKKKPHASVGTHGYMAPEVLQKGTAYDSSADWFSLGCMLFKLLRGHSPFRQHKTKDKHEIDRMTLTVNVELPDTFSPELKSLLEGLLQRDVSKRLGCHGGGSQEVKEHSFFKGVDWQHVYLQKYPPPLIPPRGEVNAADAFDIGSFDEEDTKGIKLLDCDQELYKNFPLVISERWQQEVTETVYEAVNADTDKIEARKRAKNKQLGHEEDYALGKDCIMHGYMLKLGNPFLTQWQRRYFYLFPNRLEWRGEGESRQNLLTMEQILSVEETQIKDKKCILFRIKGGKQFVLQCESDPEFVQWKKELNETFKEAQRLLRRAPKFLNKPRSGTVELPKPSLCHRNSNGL

[5] = target: off-target kinases (Homo sapiens, UniProt P42684); conditions: ABL2 (Arg), ZLYTE, ATP Km app
Chain of off-target kinases (Homo sapiens, UniProt P42684) (P42684 whole entry): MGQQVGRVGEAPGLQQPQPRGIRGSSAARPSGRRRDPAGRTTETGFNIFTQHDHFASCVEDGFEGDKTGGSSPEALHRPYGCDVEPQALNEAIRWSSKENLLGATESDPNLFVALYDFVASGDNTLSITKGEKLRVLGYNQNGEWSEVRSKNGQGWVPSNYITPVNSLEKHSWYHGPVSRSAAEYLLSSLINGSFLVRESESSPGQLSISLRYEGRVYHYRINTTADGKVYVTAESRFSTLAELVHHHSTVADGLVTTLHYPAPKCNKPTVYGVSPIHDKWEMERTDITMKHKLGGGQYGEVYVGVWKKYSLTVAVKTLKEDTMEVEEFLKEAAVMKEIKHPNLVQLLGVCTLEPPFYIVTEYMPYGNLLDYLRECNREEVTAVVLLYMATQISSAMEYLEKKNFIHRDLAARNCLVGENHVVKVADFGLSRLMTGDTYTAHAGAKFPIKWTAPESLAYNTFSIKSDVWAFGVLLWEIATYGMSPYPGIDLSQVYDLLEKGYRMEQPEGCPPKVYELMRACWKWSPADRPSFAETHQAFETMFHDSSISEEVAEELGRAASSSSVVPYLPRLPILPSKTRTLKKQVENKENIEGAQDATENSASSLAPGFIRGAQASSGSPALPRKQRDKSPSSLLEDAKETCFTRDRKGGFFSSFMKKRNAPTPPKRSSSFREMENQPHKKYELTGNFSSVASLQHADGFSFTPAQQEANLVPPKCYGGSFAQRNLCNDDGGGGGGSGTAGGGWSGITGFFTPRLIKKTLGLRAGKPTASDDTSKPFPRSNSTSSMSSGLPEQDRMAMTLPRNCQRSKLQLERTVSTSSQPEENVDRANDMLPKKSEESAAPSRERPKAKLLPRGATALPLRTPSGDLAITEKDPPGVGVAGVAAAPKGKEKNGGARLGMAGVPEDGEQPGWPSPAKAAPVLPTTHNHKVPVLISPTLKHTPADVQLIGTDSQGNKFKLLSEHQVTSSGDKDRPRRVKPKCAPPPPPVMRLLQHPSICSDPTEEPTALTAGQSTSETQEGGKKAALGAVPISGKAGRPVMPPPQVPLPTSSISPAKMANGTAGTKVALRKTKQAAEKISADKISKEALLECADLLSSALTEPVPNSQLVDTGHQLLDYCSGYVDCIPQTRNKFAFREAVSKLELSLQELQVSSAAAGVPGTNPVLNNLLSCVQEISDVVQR

[6] = target: off-target kinases (Homo sapiens, UniProt P54646)
Chain of off-target kinases (Homo sapiens, UniProt P54646) (P54646 whole entry): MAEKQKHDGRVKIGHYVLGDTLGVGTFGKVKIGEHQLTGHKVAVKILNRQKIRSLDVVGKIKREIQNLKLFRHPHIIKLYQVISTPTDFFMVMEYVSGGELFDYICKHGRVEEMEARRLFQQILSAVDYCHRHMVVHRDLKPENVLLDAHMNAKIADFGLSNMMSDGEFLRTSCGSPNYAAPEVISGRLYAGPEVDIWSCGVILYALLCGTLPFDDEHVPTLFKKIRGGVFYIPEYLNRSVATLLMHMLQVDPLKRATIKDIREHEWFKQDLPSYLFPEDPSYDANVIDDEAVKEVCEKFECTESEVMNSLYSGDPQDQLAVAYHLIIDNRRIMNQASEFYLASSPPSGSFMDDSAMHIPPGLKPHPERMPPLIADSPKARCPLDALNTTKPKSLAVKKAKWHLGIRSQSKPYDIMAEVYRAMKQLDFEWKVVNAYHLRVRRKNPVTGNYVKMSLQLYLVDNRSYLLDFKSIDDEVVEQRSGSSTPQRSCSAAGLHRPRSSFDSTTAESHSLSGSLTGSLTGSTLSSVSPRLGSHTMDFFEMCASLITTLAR

`N#Cc1cc(-c2ncnc(Nc3ccc(N4CCN(C5COC5)CC4)cc3)n2)ccc1OC1CCOCC1` [Compound 1, 5-(4-((4-(4-(oxetan-3-yl)piperazin-1-yl)phenyl)amino)-1,3,5-triazin-2-yl)-2-((tetrahydro-2H-pyran-4-yl)oxy)benzonitrile] showed an inhibition ([1]; read-out: % Inhibition 1) of 41%, an inhibition ([1]; read-out: % Inhibition 2) of 38% and an inhibition ([1]; read-out: % Inhibition Avg) of 40%. The inhibition ([2]; read-out: % Inhibition 1) was 26%, the inhibition ([2]; read-out: % Inhibition 2) was 34% and the inhibition ([2]; read-out: % Inhibition Avg) was 30%. It also gave an inhibition ([3]; read-out: % Inhibition 1) of 7%, an inhibition ([3]; read-out: % Inhibition 2) of -2% and an inhibition ([3]; read-out: % Inhibition Avg) of 3%. For the same molecule, the inhibition ([4]; read-out: % Inhibition 1) was 6%, the inhibition ([4]; read-out: % Inhibition 2) was 4% and the inhibition ([4]; read-out: % Inhibition Avg) was 5%. The inhibition ([5]; read-out: % Inhibition 1) was 40%, the inhibition ([5]; read-out: % Inhibition 2) was 39% and the inhibition ([5]; read-out: % Inhibition Avg) was 40%. The inhibition ([6]; AMPK (A2/B2/G1), LanthaScreen Binding, read-out: % Inhibition 1) was 35%, the inhibition ([6]; AMPK (A2/B2/G1), LanthaScreen Binding, read-out: % Inhibition 2) was 35% and the inhibition ([6]; AMPK (A2/B2/G1), LanthaScreen Binding, read-out: % Inhibition Avg) was 35%. The inhibition ([6]; AMPK (A2/B2/G2), LanthaScreen Binding, read-out: % Inhibition 1) was 44%, the inhibition ([6]; AMPK (A2/B2/G2), LanthaScreen Binding, read-out: % Inhibition 2) was 45% and the inhibition ([6]; AMPK (A2/B2/G2), LanthaScreen Binding, read-out: % Inhibition Avg) was 45%. For the same molecule, the inhibition ([6]; AMPK A2/B1/G1, ATP Km app, ZLYTE, read-out: % Inhibition 1) was 47%, the inhibition ([6]; AMPK A2/B1/G1, ATP Km app, ZLYTE, read-out: % Inhibition 2) was 46% and the inhibition ([6]; AMPK A2/B1/G1, ATP Km app, ZLYTE, read-out: % Inhibition Avg) was 46%.
